Key:
mice = test: Minimal neurotoxicity (TOX), rotorod test, mice i.p.; type: in vivo; settings: mice i.p.
From the text: The fluoro derivatives synthesized were submitted to the National Institute of Neurological Disorders and Stroke (NINDS) for evaluation in a standard panel of assays. Two convulsant tests (MES and scMET), and a toxicity screen (rotorod in mice, positional sense and gait in rats) were employed for evaluating the compounds activity as neuroprotecting agents. These testing procedures are described in detail in Molecular and Cellular Targets for Anti-epileptic Drugs, eds. […] The felbamate derivatives were evaluated for anticonvulsant activity following intraperitoneal (i.p.) administration in mice and oral administration in rats. […]

pentylenetetrazol = test: Subcutaneous Metrazol seizure test (scMET), mice i.p.; type: in vivo, Carworth Farms No. 1 mice; settings: mice i.p.
From the text: (§1) The fluoro derivatives synthesized were submitted to the National Institute of Neurological Disorders and Stroke (NINDS) for evaluation in a standard panel of assays. Two convulsant tests (MES and scMET), and a toxicity screen (rotorod in mice, positional sense and gait in rats) were employed for evaluating the compounds activity as neuroprotecting agents. These testing procedures are described in detail in Molecular and Cellular Targets for Anti-epileptic Drugs, eds. G. Avanzini, G. Regesta, P. Tanganelli, M. Avoli, 1997, John Libbey & Company Ltd, pp 191-198. The felbamate derivatives were evaluated for anticonvulsant activity following intraperitoneal (i.p.) administration in mice and oral administration in rats.
This is a model that primarily identifies compounds that raise seizure threshold. With some minor exceptions, the pharmacological profile of the scMET seizure model is consistent with the human condition. The scMET test utilizes a dose of pentylenetetrazol (85 mg/kg in Carworth Farms No. 1 mice and 70 mg/kg in Sprague-Dawley rats) that induces clonic seizures lasting for a period of at least five seconds in 97 % (CD97) of animals tested. At the anticipated time of testing the convulsant is administered subcutaneously. The test compound is administered intraperitoneally in mice and orally in rats. Animals are observed over a 30 minute period. Absence of clonic spasms in the observed time period indicates a compound's ability to abolish the effect of pentylenetetrazol on seizure threshold.
(§2) For the MES and scMET tests the data is presented in the form of the number of animals protected by the administered compound / total number of animals tested. […] Qualitative data was obtained for fluoro felbamate 12 (Tables 1 and 2A), fluoro monocarbamate felbamate 13 (Tables 1 and 2B), and fluorodioxo 16 (Tables 1 and 2C) and for cyclic felbamate 21 (Tables 5 and 6B) and cyclic monocarbamate 22 (Tables 5 and 6A). More extensive quantitative data was also obtained for fluoro felbamate 12 in mice (Table 3) and rats (Table 4).

[1] = test system: MES-induced seizure spread; test: Maximal Electroshock Seizure (MES) test, rats p.o.; type: in vivo, rat; settings: for MES, number of animals protected / total number of animals tested: rat p.o., 30 mg/kg
From the text: as §1
(§3) The MES test is a model for generalized tonic-clonic seizures and is used to identify compounds which prevent seizure spread. The behavioral and electrographic seizures generated in this model are consistent with the human disorder. In the MES test, an electrical stimulus of 0.2 s in duration (50 mA in mice and 150 mA in rat at 60Hz) was delivered via corneal electrodes primed with an electrolyte solution containing an anesthetic agent. Mice were tested at 30 minutes and 4 hours following doses of 30, 100 and 300 mg/kg of test compound. Rats were tested at time intervals between 0.25 and 4 hours following a standard oral dose of 30 mg/kg. Abolition of the hindlimb tonic extensor component indicates the test compound's ability to inhibit MES-induced seizure spread.
as §2

rats = test: Minimal neurotoxicity (TOX), positional sense and gait and stance tests, rats p.o.; type: in vivo; settings: rat p.o., 30 mg/kg
From the text: The fluoro derivatives synthesized were submitted to the National Institute of Neurological Disorders and Stroke (NINDS) for evaluation in a standard panel of assays. Two convulsant tests (MES and scMET), and a toxicity screen (rotorod in mice, positional sense and gait in rats) were employed for evaluating the compounds activity as neuroprotecting agents. These testing procedures are described in detail in Molecular and Cellular Targets for Anti-epileptic Drugs, eds. […] The felbamate derivatives were evaluated for anticonvulsant activity following intraperitoneal (i.p.) administration in mice and oral administration in rats.
Rats are examined for behavioral toxicity by the positional sense test and a gait and stance test. […] In the gait and stance test, neurotoxicity is indicated by a circular or zigzag gait, ataxia, abnormal spread of the legs, abnormal posture, tremor hyperactivity, lack of exploratory behavior, somnolence, stupor or catalepsy. […]

[2] = test system: MES-induced seizure spread; test: Maximal Electroshock Seizure (MES) test, mice i.p.; type: in vivo; settings: for MES, number of animals protected / total number of animals tested: mice i.p.
From the text: as §1
as §3, with “Mice were tested at 30 minutes and 4 hours following doses of 30, 100 and 300 mg/kg of test compound.” left out
as §2

Structure (SMILES)	TOX, number of animals exhibiting toxic effects / total number of animals tested (mice; 30 mg/kg, 0.5h)	TOX, number of animals exhibiting toxic effects / total number of animals tested (mice; 100 mg/kg, 0.5h)	TOX, number of animals exhibiting toxic effects / total number of animals tested (mice; 300 mg/kg, 0.5h)	ScMET, number of animals protected / total number of animals tested (pentylenetetrazol; 30 mg/kg, 0.5h)	ScMET, number of animals protected / total number of animals tested (pentylenetetrazol; 100 mg/kg, 0.5h)	ScMET, number of animals protected / total number of animals tested (pentylenetetrazol; 300 mg/kg, 0.5h)	MES, number of animals protected / total number of animals tested ([1]; 0.25h)	MES, number of animals protected / total number of animals tested ([1]; 0.5h)	MES, number of animals protected / total number of animals tested ([1]; 1.0h)	MES, number of animals protected / total number of animals tested ([1]; 2.0h)	MES, number of animals protected / total number of animals tested ([1]; 4.0h)	TOX, number of animals exhibiting toxic effects / total number of animals tested (rats; 0.25h)	TOX, number of animals exhibiting toxic effects / total number of animals tested (rats; 0.5h)	TOX, number of animals exhibiting toxic effects / total number of animals tested (rats; 1.0h)	TOX, number of animals exhibiting toxic effects / total number of animals tested (rats; 2.0h)	TOX, number of animals exhibiting toxic effects / total number of animals tested (rats; 4.0h)	MES, number of animals protected / total number of animals tested ([2]; 30 mg/kg, 0.5h)	MES, number of animals protected / total number of animals tested ([2]; 100 mg/kg, 0.5h)	MES, number of animals protected / total number of animals tested ([2]; 300 mg/kg, 0.5h)	other results
NC(=O)OCC(F)(CO)c1ccccc1 (stereo not shown) [fluoro monocarbamate felbamate, 2-Fluoro-2-phenyl-1,3-propanediol monocarbamate]	0/4	3/8	2/4	0/1	0/1	1/1	0/4	3/4	0/4	1/4	0/4	0/4	0/4	0/4	0/4	0/4	0/1	2/3	1/1	TOX, number of animals exhibiting toxic effects / total number of animals tested (mice; 30 mg/kg, 4.0h): 0/2; TOX, number of animals exhibiting toxic effects / total number of animals tested (mice; 100 mg/kg, 4.0h): 0/4; TOX, number of animals exhibiting toxic effects / total number of animals tested (mice; 300 mg/kg, 4.0h): 0/2; ScMET, number of animals protected / total number of animals tested (pentylenetetrazol; 30 mg/kg, 4.0h): 0/1; ScMET, number of animals protected / total number of animals tested (pentylenetetrazol; 100 mg/kg, 4.0h): 0/1; ScMET, number of animals protected / total number of animals tested (pentylenetetrazol; 300 mg/kg, 4.0h): 0/1; MES, number of animals protected / total number of animals tested ([2]; 30 mg/kg, 4.0h): 0/1; MES, number of animals protected / total number of animals tested ([2]; 100 mg/kg, 4.0h): 0/3; MES, number of animals protected / total number of animals tested ([2]; 300 mg/kg, 4.0h): 0/1; MES protection (in words) ([2]; mice, 100 mg/kg): moderate MES protection
O=C1NC(O)C(c2ccccc2)CO1 (stereo not shown) [Cyclic MCF]	0/4	0/8	0/4	0/1	2/5	2/5	0/4	0/4	1/4	2/4	3/4	0/4	0/4	0/4	0/4	0/4	0/1	0/3	1/1	TOX, number of animals exhibiting toxic effects / total number of animals tested (mice; 30 mg/kg, 2.0h): 0/2; TOX, number of animals exhibiting toxic effects / total number of animals tested (mice; 100 mg/kg, 2.0h): 0/4; TOX, number of animals exhibiting toxic effects / total number of animals tested (mice; 300 mg/kg, 2.0h): 0/2; ScMET, number of animals protected / total number of animals tested (pentylenetetrazol; 30 mg/kg, 2.0h): 0/1; ScMET, number of animals protected / total number of animals tested (pentylenetetrazol; 100 mg/kg, 2.0h): 0/1; ScMET, number of animals protected / total number of animals tested (pentylenetetrazol; 300 mg/kg, 2.0h): 0/1; anti-seizure activity (in words) ([1]; rats): potent activity; MES, number of animals protected / total number of animals tested ([2]; 30 mg/kg, 2.0h): 0/1; MES, number of animals protected / total number of animals tested ([2]; 100 mg/kg, 2.0h): 2/3; MES, number of animals protected / total number of animals tested ([2]; 300 mg/kg, 2.0h): 1/1
